The values that follow come from ChEMBL document CHEMBL3758082, “Design, synthesis, and biological evaluation of crenatoside analogues as novel influenza neuraminidase inhibitors” (Eur J Med Chem, 2016).

One may read the inhibition as the share of the control response that was lost under treatment. A word on the IC50: it is the concentration at which inhibition is half-maximal.

Experiment [1] addresses Neuraminidase (Influenza A virus) (UniProt B4URF0). Put plainly: Inhibition of Influenza A virus neuraminidase at 1000 ug/ml.
The target of the next experiment is Neuraminidase (Influenza A virus, UniProt B4URF0). Briefly: Inhibition of Influenza A virus neuraminidase.
Neuraminidase, sequence (B4URF0 whole entry): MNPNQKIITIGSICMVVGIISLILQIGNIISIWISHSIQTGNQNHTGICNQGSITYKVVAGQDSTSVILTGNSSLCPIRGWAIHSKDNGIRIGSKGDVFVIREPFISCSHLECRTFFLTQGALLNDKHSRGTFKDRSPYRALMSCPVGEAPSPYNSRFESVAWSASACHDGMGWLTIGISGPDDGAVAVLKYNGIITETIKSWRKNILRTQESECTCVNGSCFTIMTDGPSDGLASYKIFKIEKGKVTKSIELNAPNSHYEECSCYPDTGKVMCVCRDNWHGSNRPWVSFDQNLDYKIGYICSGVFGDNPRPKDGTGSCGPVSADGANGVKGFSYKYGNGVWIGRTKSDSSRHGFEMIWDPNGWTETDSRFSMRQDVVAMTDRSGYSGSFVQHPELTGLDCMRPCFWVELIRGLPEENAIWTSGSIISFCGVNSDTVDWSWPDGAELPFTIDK

Neuraminidase (Influenza A virus), sequence (B4URF0 as listed by the source): as the sequence (B4URF0 whole entry) above

`O=C(/C=C/c1ccccc1)O[C@H]1[C@H](O)[C@@H](CO)O[C@H]2OC[C@@H](c3ccccc3)O[C@@H]21` returned an inhibition in experiment [1] of 29.8%. In experiment [1], `O=C(/C=C/c1ccc(O)cc1)O[C@H]1[C@H](O)[C@@H](CO)O[C@H]2OC[C@H](c3ccccc3)O[C@@H]21` yielded an inhibition of 65%. Also, the IC50 at Neuraminidase is 229 µM.

Consider `CSCC[C@@H](N)C(=O)O[C@H]1[C@H](O)[C@@H](CO)O[C@H]2OC[C@@H](c3ccccc3)O[C@@H]21`, for which the inhibition in experiment [1] came out at 90.3%. This compound also showed an IC50 against Neuraminidase of 189 µM. In the same order, the values of `O=C(/C=C/c1ccc(O)cc1)O[C@H]1[C@H](O)[C@@H](CO)O[C@H]2OC[C@@H](c3ccccc3)O[C@@H]21` are 66.7% and 182 µM. `CC(C)[C@@H](N)C(=O)O[C@H]1[C@H](O)[C@@H](CO)O[C@H]2OC[C@@H](c3ccccc3)O[C@@H]21` returned an inhibition in experiment [1] of 25.3%. `C[C@@H]1O[C@@H](O[C@H]2[C@H](O)[C@@H](CO)O[C@H]3OC[C@H](c4ccccc4)O[C@@H]32)[C@H](O)[C@H](O)[C@H]1O`: in experiment [1], the inhibition came out at 8.28%.

`COc1cccc(/C=C/C(=O)O[C@H]2[C@H](O)[C@@H](CO)O[C@H]3OC[C@H](c4ccccc4)O[C@@H]32)c1` showed an inhibition in experiment [1] of 91.2%. On Neuraminidase, the IC50 was 97 µM. On to `O=C(/C=C/c1ccc(O)c(O)c1)O[C@H]1[C@H](O)[C@@H](CO)O[C@H]2OC[C@H](c3ccccc3)O[C@@H]21`, for which, in experiment [1], the inhibition was 94.1%. This compound also showed an IC50 against Neuraminidase of 67.3 µM. Turning to `CC(C)[C@@H](N)C(=O)O[C@H]1[C@H](O)[C@@H](CO)O[C@H]2OC[C@H](c3ccccc3)O[C@@H]21`, the inhibition in experiment [1] amounted to 16.6%.

In turn, `C[C@@H]1O[C@@H](O[C@@H]2[C@H]3O[C@@H](c4ccc(O)c(O)c4)CO[C@@H]3O[C@H](CO)[C@H]2OC(=O)/C=C/c2ccc(O)c(O)c2)[C@H](O)[C@H](O)[C@H]1O` [CRENATOSIDE] showed an inhibition in experiment [1] of 89.2%. This compound also showed an IC50 on Neuraminidase of 144 µM. With `C[C@@H]1O[C@@H](O[C@H]2[C@H](O)[C@@H](CO)O[C@H]3OC[C@@H](c4ccccc4)O[C@@H]32)[C@H](O)[C@H](O)[C@H]1O`, the inhibition in experiment [1] turned out to be 11.7%. Consider `O=C(/C=C/c1ccc(O)c(O)c1)O[C@H]1[C@H](O)[C@@H](CO)O[C@H]2OC[C@@H](c3ccccc3)O[C@@H]21`, for which, in experiment [1], the inhibition turned out to be 97.4%. For the same compound, the IC50 against Neuraminidase was 62.5 µM. The compound `OC[C@H]1O[C@H]2OC[C@@H](c3ccccc3)O[C@@H]2[C@@H](O)[C@@H]1O` returned an inhibition in experiment [1] of 16.8%.

Compound `C[C@@H]1O[C@@H](O[C@H]2[C@H](O)[C@@H](COC(=O)/C=C/c3ccc(O)c(O)c3)O[C@H]3OC[C@H](c4ccc(O)c(O)c4)O[C@@H]32)[C@H](O)[C@H](O)[C@H]1O` [ISOCRENATOSIDE] yielded an inhibition in experiment [1] of 86.3%. On Neuraminidase, this compound gave an IC50 of 186 µM. With `COc1cccc(/C=C/C(=O)O[C@H]2[C@H](O)[C@@H](CO)O[C@H]3OC[C@@H](c4ccccc4)O[C@@H]32)c1`, the inhibition in experiment [1] was 95.9%. This compound also gave an IC50 on Neuraminidase of 67 µM. In turn, `O=C(/C=C/c1ccccc1)O[C@H]1[C@H](O)[C@@H](CO)O[C@H]2OC[C@H](c3ccccc3)O[C@@H]21` showed an inhibition in experiment [1] of 17.6%.

In experiment [1], `OC[C@H]1O[C@H]2OC[C@H](c3ccccc3)O[C@@H]2[C@@H](O)[C@@H]1O` displayed an inhibition of 3.9%. In turn, `CSCC[C@@H](N)C(=O)O[C@H]1[C@H](O)[C@@H](CO)O[C@H]2OC[C@H](c3ccccc3)O[C@@H]21` returned an inhibition in experiment [1] of 88.8%. At Neuraminidase, this compound showed an IC50 of 216 µM.
